pIC50: −log10 of the molar value.
Columns and labels:
[1] = system: MOLM-13 cells; assay: Cell proliferation assay (alamarBlue), MOLM-13; format: cell-based; settings: Homo sapiens, 96 hours incubation, inhibition of cell proliferation
Method in brief: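 IC50 = concentration giving 50% growth inhibition relative to buffer-treated cells, after subtracting baseline fluorescence taken before dosing. Compound applied at 1E-5 to 1E-8 M for 96 h at 37 °C in RPMI1640 with 10% FCS; alamarBlue signal at 530/590 nm.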

[2] = target: T1, BRD4 (BD1) (Homo sapiens, UniProt O60885); assay: Binding assay BRD4/acetylated peptide H4 (TR-FRET protein-protein interaction assay)
T1 construct: with relatively long constructs also being possible, preferably amino acids 44-168; made in house; host or cells: E. coli
Method in brief: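 Displacement of biotin-Ac-H4 peptide from His6-tagged BRD4(BD1), final usually 10 nM, read as Eu-streptavidin to anti-His-XL665 TR-FRET (665/620 nm). Compounds tested at 11 doses up to 20 μM in duplicate, pH 7.5 HEPES, 22 °C then 4 °C incubation; IC50 by 4-parameter regression.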

| pIC50 [1] | pIC50 [2] | SMILES |
| --- | --- | --- |
| 7.30 | 7.22 | CNC(=O)N1N=C(c2ccc(N3CCC(N(C)C)CC3)cc2)c2cc(OC)c(OC)cc2C[C@@H]1C [Example 180.2, (4S)-1-{4-[4-(dimethylamino)piperidin-1-yl]phenyl}-7,8-dimethoxy-N,4-dimethyl-4,5-dihydro-3H-2,3-benzodiazepine-3-carboxamide] |
| 6.68 | 7.30 | CNC(=O)N1N=C(c2ccc(N3CCNCC3=O)cc2)c2cc(OC)c(OC)cc2CC1C (racemic) [Example 44, (±)-7,8-Dimethoxy-N,4-dimethyl-1-[4-(2-oxopiperazin-1-yl)phenyl]-4,5-dihydro-3H-2,3-benzodiazepine-3-carboxamide] |
| 6.46 | 7.30 | CNC(=O)N1N=C(c2ccc(N3CCOC3=O)cc2)c2cc(OC)c(OC)cc2CC1C (racemic) [Example 34, (±)-7,8-Dimethoxy-N,4-dimethyl-1-[4-(2-oxooxazolidin-3-yl)phenyl]-4,5-dihydro-3H-2,3-benzodiazepine-3-carboxamide] |
| 6.57 | 7.40 | CNC(=O)N1N=C(c2ccc(-c3cccc(S(=O)(=O)NC)c3)cc2)c2cc(OC)c(OC)cc2CC1C (racemic) [Example 121, (±)-7,8-dimethoxy-N,4-dimethyl-1-[3′-(methylsulphamoyl)biphenyl-4-yl]-4,5-dihydro-3H-2,3-benzodiazepine-3-carboxamide] |
| 6.36 | 6.72 | CNC(=O)N1N=C(c2ccc(-c3c(C)noc3C)cc2)c2cc(-n3nc(C)cc3C)ccc2CC1C (racemic) [Example 175, (±)-1-[4-(3,5-Dimethylisoxazol-4-yl)phenyl]-8-(3,5-dimethyl-1H-pyrazol-1-yl)-N,4-dimethyl-4,5-dihydro-3H-2,3-benzodiazepine-3-carboxamide] |
| 5.94 | 7.30 | CNC(=O)N1N=C(c2ccc(-c3ccccc3C#N)cc2)c2cc(OC)c(OC)cc2CC1C (racemic) [Example 109, (±)-1-(2′-cyanobiphenyl-4-yl)-7,8-dimethoxy-N,4-dimethyl-4,5-dihydro-3H-2,3-benzodiazepine-3-carboxamide] |
| 6.17 | 7.10 | CNC(=O)N1N=C(c2ccc(-c3cccc(C#N)c3)cc2)c2cc(OC)c(OC)cc2CC1C (racemic) [Example 105, (±)-1-(3′-cyanobiphenyl-4-yl)-7,8-dimethoxy-N,4-dimethyl-4,5-dihydro-3H-2,3-benzodiazepine-3-carboxamide] |
| 6.20 | 7.00 | CNC(=O)N1N=C(c2ccc(-c3ccc(OC)cc3)cc2)c2cc(OC)c(OC)cc2CC1C (racemic) [Example 65, (±)-7,8-dimethoxy-1-(4′-methoxybiphenyl-4-yl)-N,4-dimethyl-4,5-dihydro-3H-2,3-benzodiazepine-3-carboxamide] |
| 6.44 | 7.30 | CNC(=O)N1N=C(c2ccc(N3CCN(C(=O)C(C)(C)O)CC3)cc2)c2cc(OC)c(OC)cc2CC1C (racemic) [Example 134, (±)-1-{4-[4-(2-hydroxy-2-methylpropanoyl)-piperazin-1-yl]phenyl}-7,8-dimethoxy-N,4-dimethyl-4,5-dihydro-3H-2,3-benzodiazepine-3-carboxamide] |
| 5.66 | 6.33 | CNC(=O)N1N=C(c2ccc(-c3c(C)noc3C)cc2)c2cc(Cl)c(OC)cc2C[C@H]1C [Example 157.2, (4R)-8-chloro-1-[4-(3,5-dimethylisoxazol-4-yl)phenyl]-7-methoxy-N,4-dimethyl-4,5-dihydro-3H-2,3-benzodiazepine-3-carboxamide] |
| 5.01 | 5.34 | CNC(=O)N1N=C(c2ccc(N3CCN(C)CC3=O)cc2)c2cc(OC)c(OC)cc2C[C@H]1C [Example 43.2, (4R)-7,8-dimethoxy-N,4-dimethyl-1-[4-(4-methyl-2-oxopiperazin-1-yl)phenyl]-4,5-dihydro-3H-2,3-benzodiazepine-3-carboxamide] |

From patent US9890147B2 (BAYER PHARMA AKTIENGESELLSCHAFT, priority 2012, dated 2018)
